“And” between values parts separate entries of the source, which are not always exact repeats. Equal values may be shown once. “Also recorded” adds a separate entry of the source. Read-outs that look alike come from different tables or passages of the source.
Tests used:
[1] = target: T1, human VDR (Homo sapiens, UniProt P11473)
T1 sequence (P11473 1-427): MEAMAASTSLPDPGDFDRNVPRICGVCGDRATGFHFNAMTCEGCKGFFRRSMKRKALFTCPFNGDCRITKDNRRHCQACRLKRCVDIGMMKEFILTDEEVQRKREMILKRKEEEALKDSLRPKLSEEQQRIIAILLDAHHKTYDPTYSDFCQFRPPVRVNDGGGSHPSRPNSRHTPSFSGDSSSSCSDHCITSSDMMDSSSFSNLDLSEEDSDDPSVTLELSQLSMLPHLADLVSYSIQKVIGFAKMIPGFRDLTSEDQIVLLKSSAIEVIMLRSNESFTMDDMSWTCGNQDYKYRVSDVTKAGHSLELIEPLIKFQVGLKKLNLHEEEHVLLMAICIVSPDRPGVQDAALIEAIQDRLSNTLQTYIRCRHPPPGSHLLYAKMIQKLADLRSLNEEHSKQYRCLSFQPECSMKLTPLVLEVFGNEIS

[2] = target: human VDR ligand-binding domain; set-up: method as in PMID 21543282; details: agonist mode, cited from earlier work; for AC50: Tox21 qHTS data set, * = range of values
[3] = target: T1, human VDR; assay: Transient transactivation assay (CYP24-Luc), agonist mode, HEK293T cells
[4] = target: VDR:SRC-1 (Homo sapiens, UniProt P11473); assay: Mammalian 2-hybrid assay, recruitment of coactivator SRC-1 by VDR, Cos7 cells
[5] = target: T2, VDR:RXR, VDR:SRC-1 and VDR:NCoR interactions (Homo sapiens, UniProt P11473); assay: Mammalian 2-hybrid assay, summary in words of VDR coregulator interactions; assay type: cell-based
T2 sequence (P11473 1-427): T1 sequence (P11473 1-427)

[6] = target: T3, VDR:RXRα (Homo sapiens, UniProt P11473); assay: Mammalian 2-hybrid assay, recruitment of RXRα by VDR, Cos7 cells
T3 sequence (P11473 1-427): T1 sequence (P11473 1-427)

[7] = target: T1, human VDR; assay: Transient transactivation assay (CYP24-Luc), antagonist mode with 3 nM 1,25D3, HEK293T cells; assay type: cell-based; details: for IC50: read-out: Derived IC 50 (Transient transactivation assay)
[8] = target: T4, VDR:NCoR (Homo sapiens, UniProt P11473); assay: Mammalian 2-hybrid assay, recruitment of corepressor NCoR by VDR, Cos7 cells
T4 sequence (P11473 1-427): T1 sequence (P11473 1-427)

[9] = target: human VDR ligand-binding domain; set-up: method as in PMID 21543282; details: read-out: Tox21 IC 50, cited from earlier work
[10] = AC50 (μM), experimental AC50 as listed in Fig 4a, agonists
[11] = Derived AC50 (Transient transactivation assay), agonist mode, HEK293T cells, CYP24A1-Luc
[12] = agonists, orthogonal transient transactivation assay, HEK293T cells
[13] = agonists, -RXR (empty pSG5), percentage of vitamin D3, conc. in Fig 5: ergocalciferol 60, lithocholic acid 50, calcipotriol 0.05, ethylphenol compound 40, 9 aminoacridine 50, tamoxifen citrate 20 μM

Molecule	Derived Efficacy (fold induction) [1] [fold induction]	AC50 [2] [µM]	Activity [3, 12]	pattern of VDR:coregulator interaction facilitated by the ligand [5]	Activity [3]	% Induction, pMSRC-1NR + EpSG5 [4]	% Induction (pMRXRα + EpSG5) [6]	% Induction (pMRXRα + SRC- 1) [6]	Activity [7]	Derived Efficacy (fold inhibition) [7] [fold inhibition]	also measured
Cc1cc(Cc2cc(C)cc(C(C)(C)C)c2O)c(O)c(C(C)(C)C)c1 [2,2′-methylenebis(6-tert-butyl-4-methylphenol)]	29.470	32.1	Active								AC50 [3, 10]: 4.62 µM; AC50 [3, 11]: 9.32 µM; % Induction, pMSRC-1NR + EpSG5 [4, 13]: 8.2%
O=C(NC(=O)c1c(F)cccc1F)Nc1ccc(OC(F)(F)C(F)OC(F)(F)F)c(Cl)c1 (stereo not shown) [Novaluron]	16.3718	23.4		Interaction between VDR:SRC-1 only in the absence of RXR	Active	0.9					AC50 ([3]; read-out: Derived AC50 (Transient transactivation assay)): 37.4 µM
CN1CCC(Nc2ncc3ncnc(Nc4ccc(F)c(Cl)c4)c3n2)CC1.Cl.Cl [Falnidamol dihydrochloride]	9.9267	3.3		induced recruitment of RXR both in the presence and absence of co-transfected SRC-1	consistently failed to exhibit any concentration response interactions; also recorded: Inactive		5.3	3.7			activity in the Tox21 qHTS data set [2]: active
Cadmium reference solution						1.3	23.7	16	Active	76.1807	IC50 [7]: 0.198 µM; Fold Change (pMNCoR + EpSG5) [8]: 0.7; % Induction (pMSRC-1NR + RXRα) [4]: 0.9
CC(C)C[C@H](NC(=O)[C@H](CCc1ccccc1)NC(=O)CN1CCOCC1)C(=O)N[C@@H](Cc1ccccc1)C(=O)N[C@@H](CC(C)C)C(=O)[C@@]1(C)CO1 [Carfizomib, reference compound]			very weak agonist activity								Activity ([7]; antagonists, transient transactivation assay in the presence of 3 nM 1,25D3): Active; Activity ([7]; antagonists, transient transactivation assay in the presence of 3 nM 1,25D3, listed as carfizomib): moderate to marked synergistic activity; IC50 ([7]; inhibition of 3 nM 1,25D3-induced response, HEK293T cells, unit given in Fig 3 legend): 0.53 µM and 0.538 µM; Derived Efficacy (fold inhibition) ([7]; top asymptote of Hill or Gain-Loss model, maximum response): 80.6485 fold inhibition; IC50 ([9]; antagonist mode, Tox21 qHTS data set): 0.748 µM; % Induction (pMRXRα + EpSG5) ([6]; antagonists with 1,25D3, -SRC-1, percentage of vitamin D3, conc. in Fig 6: phenylarsine oxide 0.37, dibutyltin dichloride 1, K dicyanoaurate 6, aristolochic acid, carfizomib 12, menadiol 3 μM): 1908.1%; % Induction (pMSRC-1NR + RXRα) ([4]; antagonists with 1,25D3, +RXR, percentage of vitamin D3, conc. in Fig 6: Cd chloride 12, dibutyltin dichloride 1, K dicyanoaurate 6, proscillaridin, aristolochic acid, carfizomib 12 μM): 296%
[Cl][Cd][Cl] [Cadmium chloride]							175		Active	44.5165	IC50 [7]: 0.38 µM; pattern of change of 1,25D3 induced VDR:coregulator interaction [5]: enhanced recruitment of VDR:RXR and VDR:SRC-1 in both the presence and absence of co-expressed coregulators; IC50 [9]: 0.171 µM; Fold Change (pMNCoR + EpSG5) [8]: 1.1
Cl.Nc1c2ccccc2nc2ccccc12 [9 Aminoacridine monohydrochloride]	44.5165	4.25 to 11.1	Active								AC50 [3, 10]: 10.9 µM; AC50 [3, 11]: 12.6 µM; Fold Change (pMNCoR + EpSG5) ([8]; agonists, -RXR, fold induction compared to DMSO, 9 aminoacridine at 50 μM in Fig 5): 67.7 fold; % Induction, pMSRC-1NR + EpSG5 [4, 13]: 14.4%
Cadmium acetate dihydrate						51.7		165.6	Active	20.5478	pattern of change of 1,25D3 induced VDR:coregulator interaction [5]: enhanced the interaction between VDR:RXR only in the presence of co transfected SRC-1; IC50 [9]: 0.271 µM; % Induction (pMSRC-1NR + RXRα) [4]: 46.7
Cc1cccc2c1cc1ccc3cccc4ccc2c1c34 [7 methyl benzo (a) pyrene]	19.1624	2.54		Interaction between VDR:RXR only in the presence of co transfected SRC-1	Active						AC50 ([3]; Derived AC50 (Transient transactivation assay)): 10.6 µM
